Assay [1] deals with TagCAR-RACR iCIL cells. The experiment in a line: RACR-driven differentiation and expansion of iCIL cells from Day 26 lymphoid progenitors. In kind it is cell-based, human. Conditions: AP21967 100 nM, no other cytokine. The text has this:
The RACR-system was utilized for differentiation to iPSC-derived CIL cells (iCIL cells). The iPSC cell line ATCC-BXS0117 (ATCC #ACS-1031) was differentiated into lymphoid progenitors through the STEMdiff NK cell kit (STEMCELL® Technologies, #100-0170) as described in Example 2 above, up until the Day 26 timepoint. The percentage of cells containing common lymphoid progenitors (CD45+/CD5+/CD7+), CIL precursors (CD45+/CD5−/CD7+), and early CIL cells (CD45+/CD5−/CD7+/CD56+) is seen in FIG. 3D with ˜50% of the cells presenting as CIL precursors and ˜25% of total cells presenting as early CIL cells. In this study, Day 26 cells were pelleted and placed in a CIL expansion media at 2×10^6 cells/mL containing (IL-2, IL-15, IL-21, IL-18, IL-7 in complete RPMI media: RPMI1640, 10% FBS, 1× Pen-Strep, and 1× Glutamax). […]
At Day 27, the cells were transduced with either VSV-G lentivirus with the payload of Tag (anti-FITC) CAR-P2A-FRB-P2A-RACR at an MOI 10 with 10 µg/mL of protamine sulfate or treated with 10 μg/mL or protamine sulfate alone (Mock). […] An aliquot of cells was collected weekly, counted on the Vicell Blu automated cell counter, and stained for CD16 clone 3G8, CD56 clone HCD56, CD45 clone 2D1, CD5 clone L17F12, CD7 clone CD7-6B7 and anti-FITC CAR (TagCAR) detection through FITC-AF647.

The test system of assay [2] is RACR-iCILs. Briefly: Proliferation of D47 RACR-iCILs. In kind it is cell-based. Conditions: rapalog 100 nM. The procedure:
RACR-iCILs were generated similar to as described in FIG. 18A and FIG. 18B except without SCF and TPO included in the HP medium as described in Example 9 and FIG. 17A. Data shown are from two BE-RACR iPSC clones. At D40 RACR-iCILs were incubated for one week in a maturation medium containing IL-2, IL-7, IL-12, IL-15, IL-18 and activation beads (anti-CD2/NKp46). RACR-iCILs were then incubated with breast adenocarcinoma MDA-MB23 1 cells expressing a nuclear fluorescent protein at a 10:1 […] ratio in the presence of medium alone, cytokines (IL-2/IL-7/IL-15), or rapalog (100 nM). Cell mixtures were placed into an IncuCyte fluorescent microscope and imaged every 2 hours. The number of MDA-MB23 1 cells was quantified over time via a fluorescent marker and graphed as the ratio of MDA-MB23 1 cells compared to time 0 (time 0 is equal to one). […] RACR-iCILs were then collected, placed in fresh media, and then re-exposed to MDA-MB23 1 cells for a rechallenge (FIG. 19A). Proliferation of D47 RACR-iCILs was also evaluated in different cytokine treatments or rapalog (100 nM).

In assay [3] the test system is RACR-CAR+ cells. The experiment in a line: Differentiation of RACR-transduced CLP into CIL cells with or without common gamma chain cytokines. The format is cell-based, human.
In assay [4] the test system is PSMA-positive human prostate cancer cells. Conditions: DUPA-(99m) Tc; cited from earlier work.
In assay [5] the test system is hematopoietic progenitors (CD34+/CD43+/CD45+). Briefly: HP differentiation phase: rapamycin requirement. The format is cell-based. The procedure:
RACR iPSCs (edited B2M-EF1a-RACR and knocked out for FKBP12) were cultured in media, as described in Example 9. At day 0-2, embryoid bodies (EBs) were generated from a single cell suspension of iPSCs in STEMdiff APEL 2 Medium (STEMCELL Technologies) supplemented with BMP4, FGF2, VEGF, Y27632, and +/− rapalog (RL; AP21967) or +/− rapamycin (RM). EBs were formed using plates comprising aggregates of microwells (e.g. Aggrewell™ 800 plates) at 500 iPSC/EB or 1000 iPSC/EB, as described in Example 9 and shown in FIG. 34. As shown in FIG. 35A-B, higher iPSC confluency at the start of differentiation contributes to a higher HP yield. Further, a range of 200-250 iPSC/EBs seeded in microwells is optimal to achieve the highest HP yield on day 15 (FIG. 35C).
The differentiating EBs were moved to non-tissue culture treated 6-well plates (Corning) at day 6 and fresh HP Medium was added. Every 3 days from days 3-15, half of the media was replaced with HP Medium.

In assay [6] the test system is wildtype iPSCs. Briefly: iPSC confluency after four days of rapamycin. The format is cell-based, human. Conditions: four days of treatment. The procedure: (§1) RACR requires rapamycin for activation; however, rapamycin inhibits cell growth. To generate rapamycin resistant cells, the FKBP12 gene was knocked-out. […] In the absence of FKBP12, rapamycin cannot interact with the mTOR complex and thus loses its inhibitory capacity. The efficiency of the knockout was determined by Sanger sequencing. Con1, Con2, or Con3 indicate different electroporation conditions for CRISPR-Cas9 based editing resulting in differing levels of knockout. Phase-contrast images reveal normal iPSC morphology in both wild type and FKBP12 KO cells, FIG. 16B, right panel. The confluency of wildtype iPSCs after four days of treatment with varying doses of rapamycin with inhibition of growth at 1 nM rapamycin or higher is shown in FIG. 16C. […] The ability of clonal FKBP12 KO iPSCs to differentiate to hematopoietic progenitors (HPs) in the presence of rapamycin is shown in FIG. 16E.

Assay [7] deals with iCIL cells. Briefly: iCIL differentiation and expansion in bioreactors. Conditions: iCIL differentiation phase. The format is cell-based. The procedure: At Day 15 of culture, the differentiated cells were continued in culture for up to 40 days for iCIL cell generation. At Day 21, the GRex bioreactor was seeded with the cells, as described in Example 13. […] Lower seeding densities on days 15 and 24 contributed to increased iCIL yields, while higher seeding densities contributed to higher iCIL yields on Days 30-33 (FIG. 39B). In another experiment, this step was repeated with two different stirred-tank bioreactors at various stages in the protocol.
Thus, Aim V was used as the base medium for the iCIL differentiation phase. Components and supplements in the Aim V medium used during the iCIL differentiation phase were tested for their effect on iCIL yield and cytotoxicity.

The subject of assay [8] is FKBP12 KO iPSCs. Briefly: iPSC confluency during four days of rapamycin. The format is cell-based, human. Conditions: four days of treatment. The procedure:
as §1

Assay [9] deals with non-Hodgkin's lymphoma tumor cells. The experiment in a line: RACR-iCIL co-culture cytotoxicity with or without rituximab. The format is cell-based. Conditions: added to RACR-iCILs. The procedure: (§2) In a similar experiment, RACR-iCILs were cocultured with Burkitt's lymphoma tumor cells or non-Hodgkin's lymphoma tumor cells at a ratio of 2.5:1, 10:1, or 0:1, and stimulated with and without rapamycin and/or cytokines. Additional groups included rituximab. Cytotoxicity was determined by imaging cells across 40 hours, as described in Example 6.

Assay [10] deals with Burkitt's lymphoma tumor cells. Described as above. In kind it is cell-based. Conditions: added to RACR-iCILs. The procedure: as §2

In the case of `CO[C@@H]1C[C@H](C[C@H](C)C2CC(=O)[C@@H](C)/C=C(\C)[C@@H](O)[C@@H](OC)C(=O)[C@H](C)C[C@@H](C)/C=C/C=C/C=C(\C)[C@H](c3c[nH]c4c(C)cccc34)C[C@H]3CC[C@@H](C)[C@@](O)(O3)C(=O)C(=O)N3CCCC[C@H]3C(=O)O2)CC[C@@H]1O` (some centres unmarked) [AP21967], the “iCIL expansion and differentiation” value in [1] is reported as “sufficient to drive iCIL expansion in the absence of any other cytokine signaling”. Moreover, the “total RACR-iCILs one week after stimulation” value in [2] is reported as “supported RACR-iCIL growth”. Also, the “percent of RACR-CAR+CD56+ cells” value in [3] (4 nM AP21967, all media conditions, Day 40) is given as “increase in the percent of RACR-CAR+CD56+ cells”. Further, in [3] (UM729 alone (None) media plus rapalog), the “fold change in RACR-CAR+ cells” value is listed as “largest fold change in RACR-CAR+ cells”.

With `O=C(O)CC[C@H](NC(=O)N[C@@H](CCC(=O)O)C(=O)O)C(=O)O` [DUPA], the Kd (usually the equilibrium constant for the complex coming apart) in assay [4] is 14 nM.

For the compound `CO[C@H]1C[C@@H]2CC[C@@H](C)[C@@](O)(O2)C(=O)C(=O)N2CCCC[C@H]2C(=O)O[C@H]([C@H](C)C[C@@H]2CC[C@@H](O)[C@H](OC)C2)CC(=O)[C@H](C)/C=C(\C)[C@@H](O)[C@@H](OC)C(=O)[C@H](C)C[C@H](C)/C=C/C=C/C=C/1C` [rapamycin], in assay [5], the “lowest rapamycin concentration sufficient to produce comparable HP yields” value is 3.1 nM. In addition, the “rapamycin dose with inhibition of growth (confluency)” value in [6] is listed as at least 1 nM. Besides, the “lowest rapamycin concentration sufficient to expand iCIL cells” value in assay [7] is 6.2 nM. Also, the “rapamycin doses with robust growth (confluency)” value in [8] was “up to 100 nM”.

Consider “rituximab: antibody added to RACR-iCIL co-cultures with lymphoma tumor cells”, for which the “further increase of tumor killing” value in [9] and in assay [10] was 10% each time.

Values taken from patent US20250367290A1, “ENGINEERED STEM CELLS AND USES THEREOF” (Umoja Biopharma, Inc., priority 2022, published 2025).
